According to patent US8802710B2, “Metronidazole esters for treating rosacea” (Galderma Research & Development, priority 2010, dated 2014):
Each block holds one compound with its values, some of them ahead of it.

What was measured:
[1] = tested on: oedema induced by TPA (phorbol 12-myristate-13-acetate) on mouse ear; assay: Model of acute inflammation on mouse ear: oedema induced by TPA; format: in vivo; conditions: for inhibition of the TPA-induced inflammation: concentration of 1%, TPA test in mice; for IC50 (concentration at which 50% inhibition of the oedema induced by TPA alone is observed): applied with 0.01% TPA in ethanol, oedema measured 6 hours after application
Protocol: The anti-inflammatory activities of the compound of formula (I) in racemic form, of metronidazole and of flurbiprofen (racemic) were measured in an in vivo test performed on a mouse model.
The model used is the model of mouse ear inflammation induced by a single application of TPA (phorbol 12-myristate-13-acetate). Female Balb/c ByJlco mice are used.
The oedema is induced by applying to the ear 20 μl of 0.01% TPA dissolved in ethanol.
The racemic compound of formula (I) is dissolved, at the desired concentration, in the 0.01% TPA solution and thus applied to a group of mice at the same time as the TPA.
Similarly, flurbiprofen (racemic) is dissolved, at the desired concentration, in the 0.01% TPA solution and thus applied to another group of mice at the same time as the TPA.
Finally, metronidazole is dissolved, at the desired concentration, in the 0.01% TPA solution and thus applied to another group of mice at the same time as the TPA.
The oedema is evaluated, 6 hours after application, by measuring the thickness of the ear using an Oditest® micrometer.
The TPA-induced oedema is evaluated relative to the ethanol vehicle group. The inhibition, with the racemic compound of formula (I), with flurbiprofen (racemic) or with metronidazole, of the oedema induced by TPA alone is expressed by the IC50.
The IC50 corresponds to the concentration (or dose) at which 50% inhibition of the oedema induced by TPA alone is observed.

[2] = tested on: oedema induced by arachidonic acid (AA) on mouse ear; assay: Model of acute inflammation on mouse ear: arachidonic acid-induced oedema; format: in vivo; conditions: for IC50 (concentration at which 50% inhibition of the oedema induced by AA alone is observed): topical on mouse ear, oedema measured 1 hour after application, % weight per volume of solution
Protocol: The anti-inflammatory activities of the compound of formula (I) in racemic form, of the S enantiomer of the compound of formula (I), of metronidazole and of flurbiprofen were measured in an in vivo test performed on a mouse model. This model consists in inducing inflammation of the mouse ear with a single application of arachidonic acid (AA). Female Balb/c ByJlco mice are used. The oedema is induced by applying to the mouse's ear 20 μL of AA dissolved to 4% in a 1/1 THF/methanol mixture. The anti-inflammatory activities of the S enantiomer of the compound of formula (I), of the compound of formula (I) in racemic form, of metronidazole and of flurbiprofen were evaluated after topical application onto the inner face of the mouse's ear of 20 μL of a solution of the compound in a 1/1 THF/methanol mixture containing 4% AA.
Solutions containing 0.01%; 0.03%; 0.1%; 0.3%; 1% and 2% of the test compound are thus prepared. The percentages correspond to the weight of the test compound per volume of solution. The oedema is evaluated, 1 hour after application, by measuring the thickness of the ear using an Oditest® micrometer. The oedema induced by AA alone is evaluated, 1 hour after application, by measuring the thickness of the ear using an Oditest® micrometer. It is evaluated relative to a group comprising only the vehicle (1/1 THF/methanol).
The inhibition of the oedema is expressed as a percentage of reduction, by the test molecule and at the test concentration, of the oedema induced by AA alone.
The IC50 corresponds to the concentration (or dose) at which 50% inhibition of the oedema induced by AA alone is observed.

[3] = tested on: human neonatal keratinocytes; assay: Stability on keratinocyte cultures; format: in vitro ADME; conditions: human keratinocyte cultures
Protocol: (§1) The stability on keratinocyte cultures is evaluated using human neonatal keratinocytes (Cell'N Tech) cultured in a 75 cm^2 flask and detached at 90-100% of confluence with vegetable trypsin (trypLE GIBCO). The compound of formula (I) was tested at 2 μM in the medium CNT-057 (Cell'N Tech) supplemented with 0.1% pluronic acid in 24-well plates. The final DMSO concentration is 0.1%. Degradation kinetics are performed with a Tecan EVO robot over 24 hours. The samples taken are then assayed by LC/MS/MS (Micromass) in comparison with a calibration range of the test product, prepared under the same conditions as the samples (⅓ culture medium and ⅔ methanol). The chromatographic conditions are optimized for each product. An assay of the appearance of metronidazole is also performed using these same samples.

[4] = Stability on keratinocyte cultures; format: in vitro ADME, human; conditions: 2 μM, human neonatal keratinocyte culture, kinetics over 24 hours, LC/MS/MS; read-out: half-life time (t1/2) (converted)
Protocol: as §1

Structure (SMILES): Cc1ncc([N+](=O)[O-])n1CCOC(=O)[C@H](C)c1ccc(-c2ccccc2)c(F)c1 [2-(2-methyl-5-nitroimidazol-1-yl)ethyl (R)-2-(2-fluorobiphenyl-4-yl)propionate]
- inhibition of the TPA-induced inflammation [1]: 85%

Structure (SMILES): CC(C(=O)O)c1ccc(-c2ccccc2)c(F)c1 (racemic) [flurbiprofen (racemic), flurbiprofen]
- inhibition of the oedema induced by AA alone ([2]; dose of 0.1%, topical, 1 hour after application): 60%
- IC50 (concentration at which 50% inhibition of the oedema induced by AA alone is observed) [2]: 0.037%
- IC50 (concentration at which 50% inhibition of the oedema induced by TPA alone is observed) [1]: 0.22%

Structure (SMILES): Cc1ncc([N+](=O)[O-])n1CCOC(=O)C1CCn2c(C(=O)c3ccccc3)ccc21 (stereo not shown) [metronidazole ester with ketorolac]
- hydrolysis / stability of the ester on keratinocyte cultures [3]: do not become hydrolysed

Structure (SMILES): C[C@@H](C(=O)O)c1ccc(-c2ccccc2)c(F)c1 [(R)-flurbiprofen]
- inhibition of the TPA-induced inflammation [1]: 80%

Structure (SMILES): Cc1ncc([N+](=O)[O-])n1CCO [metronidazole]
- anti-inflammatory activity ([2]; AA-induced mouse ear oedema, result in words): no anti-inflammatory activity
- anti-inflammatory activity ([1]; TPA-induced mouse ear oedema, result in words): no anti-inflammatory activity

Structure (SMILES): Cc1ncc([N+](=O)[O-])n1CCOC(=O)c1cccnc1Nc1cccc(C(F)(F)F)c1 [metronidazole ester with niflumic acid]
- hydrolysis / stability of the ester on keratinocyte cultures [3]: do not become hydrolysed

Structure (SMILES): C[C@H](C(=O)O)c1ccc(-c2ccccc2)c(F)c1 [(S)-flurbiprofen]
- inhibition of the TPA-induced inflammation [1]: 70%

Further lines, with some results ahead:

- hydrolysis / stability of the ester on keratinocyte cultures [3]: do not become hydrolysed
Structure (SMILES): COc1ccc2c(c1)c(CC(=O)OCCn1c([N+](=O)[O-])cnc1C)c(C)n2C(=O)c1ccc(Cl)cc1 [metronidazole ester with indomethacin]

- half-life at 2 μM [4]: 6 h
- hydrolysis / stability of the ester on keratinocyte cultures [3]: specifically cleaved in keratinocytes
- IC50 (concentration at which 50% inhibition of the oedema induced by TPA alone is observed) [1]: 0.22%
Structure (SMILES): Cc1ncc([N+](=O)[O-])n1CCOC(=O)C(C)c1ccc(-c2ccccc2)c(F)c1 (racemic) [2-(2-methyl-5-nitroimidazol-1-yl)ethyl 2-(2-fluorobiphenyl-4-yl)propionate]
- anti-inflammatory activity compared with flurbiprofen ([2]; dose of 1%, AA-induced mouse ear oedema, result in words): equivalent to that of flurbiprofen (racemic) at the 0.1% dose

- IC50 (concentration at which 50% inhibition of the oedema induced by AA alone is observed) [2]: 1%
- half-life at 2 μM [4]: 18 h
Structure (SMILES): Cc1ncc([N+](=O)[O-])n1CCOC(=O)[C@@H](C)c1ccc(-c2ccccc2)c(F)c1 [2-(2-methyl-5-nitroimidazol-1-yl)ethyl (S)-2-(2-fluorobiphenyl-4-yl)propionate]
- inhibition of the TPA-induced inflammation [1]: 95%

- hydrolysis / stability of the ester on keratinocyte cultures [3]: do not become hydrolysed
Structure (SMILES): Cc1ncc([N+](=O)[O-])n1CCOC(=O)c1cc(-c2ccc(F)cc2F)ccc1O [metronidazole ester with diflunisal]
